Laboratory results: patent publication US12642806B2, “Cannabidiol compositions for use in treating heart conditions” (CARDIOL THERAPEUTICS INC., priority 2019, dated 2026)

Tests used:
human monocytes = test: CD69 expression by ionomycin/PMA-activated human monocytes (flow cytometry); type: cell-based; settings: CBD 5 μg/mL or greater, added 15 minutes before 4 hours stimulation with ionomycin 1 μg/ml and PMA 50 ng/ml
Experimental: (§1) A further study was performed to determine the effect of CBD on the expression of CD69 (a marker of leukocyte activation) by human lymphocytes and monocytes that had been activated by ionomycin (1 μg/mL) and phorbol myristate acetate (PMA, 50 ng/mL) in vitro.
(§2) Mononuclear cells from a healthy human donor were isolated using a gradient method with Ficoll-Pacque™ Healthcare. Cells were washed with RPMI media with 10% FCS and 1% Penn/Strept and then placed in 12 well trays at 1×10^6 cells/mL and stimulated for 4 hours with Ionomycin 1 μg/ml and 50 ng/ml PMA. CBD was added 15 minutes before using DMSO as a vehicle. After the stimulation, cells were washed again and resuspended in 150 μL staining buffer (PBS+1% BSA). An optimized protocol for surface marker staining was used. CD69 was added to the cells, which were then incubated for 15 minutes in the dark at room temperature. After this, cells were washed twice with PBS+1% BSA and resuspended in 150 μL buffer. Cells were kept at 4 degrees prior to being analyzed in a FACSCanto™ II cytometer. Cell populations were determined by FSC/SSC. The number of events were at least 2000 events per gate. […] The data was analyzed with FlowJo X. Doublets were discriminated with an exclusion gate of FSC-A/FSC-W. Gating for lymphocytes and monocytes was determined by FSC-A/SSC-A. The frequency and expression of CD69-FITC was analyzed in its FITC channel.

human lymphocytes = test: CD69 expression by ionomycin/PMA-activated human lymphocytes (flow cytometry); type: cell-based; settings: CBD 5 μg/mL or greater, added 15 minutes before 4 hours stimulation with ionomycin 1 μg/ml and PMA 50 ng/ml
Experimental: as §1, §2

[1] = taken orally; background statement; cited from earlier work
[2] = system: mouse model of non-ischemic heart failure (HF); test: Mouse model of non-ischemic heart failure (L-NAME/NaCl + Angiotensin II); type: in vivo, C57BL/6 laboratory mice; settings: for cardiac fibrosis (Masson's Trichrome) / myocyte area (hypertrophy): 4 weeks, vs Angiotensin group; for mRNA expression of BNP in heart tissue (qPCR): compared with ANG group
Experimental: Tests were done to evaluate the potential for CBD in treating or preventing heart failure in a mouse model of non-ischemic heart failure (HF) illustrated in FIG. 5.
Three to four week old male C57BL/6 laboratory mice were used in the experiments. The mice were divided into four groups. A first group (the Control) received nothing. The second group of mice (Angiotensin) was provided with water containing 0.1 mg/ml of N(gamma)-nitro-L-arginine methyl ester (L-NAME) and 1% sodium chloride (NaCl) ad libitum for one week. Following this, 0.7 mg/kg/week of Angiotensin II was administered subcutaneously for 4 weeks using osmotic pumps. The third group and fourth group were subjected to the same protocol as the second group, however, the third group (ANG+CBD 1 mg/kg) and fourth group (ANG+CBD 10 mg/kg) also received synthetic CBD subcutaneously in an amount of 1 mg/kg and 10 mg/kg, respectively, once every 3 days during the same four week period. The CBD compositions used in this experiment consisted of CBD dissolved in PEG400.
After four weeks of treatment, cardiac tissue was evaluated for fibrosis and myocyte hypertrophy and changes in remodeling and inflammation biomarkers.

H9c2 cells [3] = test: Repeated H9c2 hypertrophy study: BNP and collagen mRNA, mitochondrial ROS (MitoSOX); type: cell-based
Experimental: The study was repeated using H9c2 cells grown in a culture medium divided into seven groups. To one group nothing was added (“CTRL”). To the second, fourth, fifth, sixth, and seventh groups, Angiotensin II was added to the culture medium (“ANG”) to give a final concentration of 1.0 μM. The Angiotensin II was added to induce hypertrophy. To the third group, CBD was added to give a concentration of 0.1 μM (“CBD 0.1 μM”) as an additional control group. CBD was also added to (a) the fourth group to give a concentration of 0.001 μM (“ANG+CBD 0.001 μM”), (b) the fifth group to give a concentration of 0.01 μM (“ANG+CBD 0.01 μM”), (c) the sixth group to give a concentration of 0.1 μM (“ANG+CBD 0.1 μM”), and, finally, (d) the seventh group to give a concentration of 1 μM (“ANG+CBD 1 μM”).

H9c2 cells [4] = test: Angiotensin II-mediated cardiomyocyte hypertrophy in H9c2 cells, cell surface area (calcein, confocal microscopy); type: cell-based; settings: compared with Ang group
Experimental: A study was conducted to determine the effect of CBD in a model of cardiomyocyte hypertrophy, using H9c2 cells, a cardiomyocyte cell line, in vitro. In this study, H9c2 cells grown in a culture medium were divided into four groups. To one group nothing was added (“Control”). To the second, third and fourth groups, Angiotensin II was added to the culture medium (“Ang”) to give a final concentration of 1.0 μM. The Angiotensin II was added to induce hypertrophy. To the third group, CBD was also added to give a concentration of 0.1 μM (“Ang+CBD 0.1 μM”). Finally, to the fourth group, CBD was also added to give a concentration of 1 μM (“Ang+CBD 1 μM”).
FIG. 1 contains representative confocal microscopy images of the H9c2 cells in each group. The images were obtained using a model with the same parameters and cell staining, to determine the surface area per cell, was achieved using calcein fluorescent dye. […] The results are summarized in FIG. 2, wherein each group comprises at least 3 independent replicates per group.

CB2 receptor [5] = target: T1, CB2 receptor (Homo sapiens, UniProt P34972); settings: literature (Proc Natl Acad Sci USA 2008); cited from earlier work
CB2 receptor [6] = target: T1, CB2 receptor; settings: literature (Proc Natl Acad Sci USA 2008); cited from earlier work; remark: listed apart in the source
[7] = CBD 1 mg/kg body weight subcutaneously
[8] = CBD 1 mg/kg subcutaneously once every 3 days
[9] = CBD 10 mg/kg subcutaneously once every 3 days
[10] = ANG+CBD 1 μM compared to ANG group
[11] = Angiotensin II 1.0 μM + CBD 0.001, 0.01, 0.1, 1 μM

T1 sequence (P34972 whole entry): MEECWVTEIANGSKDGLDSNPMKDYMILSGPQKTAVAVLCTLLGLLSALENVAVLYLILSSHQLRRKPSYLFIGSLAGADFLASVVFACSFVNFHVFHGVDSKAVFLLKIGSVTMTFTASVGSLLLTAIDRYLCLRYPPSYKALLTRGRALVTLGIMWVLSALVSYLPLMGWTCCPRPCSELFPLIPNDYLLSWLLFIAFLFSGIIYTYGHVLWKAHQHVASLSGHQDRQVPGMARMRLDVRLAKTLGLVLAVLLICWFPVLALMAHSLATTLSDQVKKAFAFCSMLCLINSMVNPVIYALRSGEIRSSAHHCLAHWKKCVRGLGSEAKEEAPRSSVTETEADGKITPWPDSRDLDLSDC

For C=C(C)[C@@H]1CCC(C)=C[C@H]1c1c(O)cc(CCCCC)cc1O [CBD, cannabidiol], the “level of expression of CD69 by monocytes” value (human monocytes) is listed as “reduced the level of expression of CD69”, the “level of expression of CD69 by lymphocytes” value (human lymphocytes) is listed as “reduced the level of expression of CD69” and the overall bioavailability [1] is listed as “less than 10%”. For the same compound, the “mRNA expression of IL10” value [2, 7] was “significantly increased”, the “mRNA expression of pro-inflammatory cytokine IL6” value [2, 7] was “significantly decreased” and the “cardiac fibrosis (Masson's Trichrome)” value [2, 8] was “effective to reduce”. For the same compound, the “myocyte area (hypertrophy)” value [2, 8] was “effective to reduce”, the “mRNA expression of BNP in heart tissue (qPCR)” value ([2]; CBD 1 mg/kg subcutaneously) was “significant reduction” and the “mRNA expression of pro-inflammatory cytokine IL6” value ([2]; CBD 10 mg/kg body weight subcutaneously) was “significantly decreased”. For the same compound, the “cardiac fibrosis (Masson's Trichrome)” value [2, 9] was “effective to reduce”, the “myocyte area (hypertrophy)” value [2, 9] was “effective to reduce” and the “mRNA expression of BNP in heart tissue (qPCR)” value ([2]; CBD 10 mg/kg subcutaneously) was “significant reduction”. The “mRNA expression of pro-inflammatory cytokine IL1β” value ([2]; CBD subcutaneously, dose not given) was “trend to be reduced to control levels”, the “mRNA level of expression of collagen” value (H9c2 cells [3]; ANG+CBD 0.1 μM compared to ANG group) was “significantly reduced” and the “mRNA level of expression of BNP” value (H9c2 cells [3]; [10]) was “significantly reduced”. The “mRNA level of expression of collagen” value (H9c2 cells [3]; [10]) was “significantly reduced”, the “mRNA level of expression of BNP” value (H9c2 cells [3]; [11]) was “dose-dependent reduction” and the “mRNA level of expression of collagen” value (H9c2 cells [3]; [11]) was “dose-dependent reduction”. The “Mitochondrial reactive oxygen species (ROS, MitoSOX)” value (H9c2 cells [3]; Angiotensin II 1.0 μM + CBD at different doses) was “reduced down to control levels”, the “cell surface area of H9c2 cells” value (H9c2 cells [4]; Angiotensin II 1.0 μM + CBD 0.1 μM) was “significantly smaller” and the “cell surface area of H9c2 cells” value (H9c2 cells [4]; Angiotensin II 1.0 μM + CBD 1 μM) was “significantly smaller”.

For C=C1CC/C=C(\C)CC[C@@H]2[C@@H]1CC2(C)C [β-caryophyllene, trans-(1R,9S)-8-Methylene-4,11,11-trimethylbicyclo[7.2.0]undec-4-ene], the “functional activity at CB2” value (CB2 receptor [5]) is given as “functional CB2 agonist” and the “binding to the CB2 receptor” value (CB2 receptor [6]) is given as “selectively binds to the CB2 receptor”.
